From patent US12532883B2, “Powder compositions comprising salts of C4 to C10 oxocarboxylic acids and of unsaturated or aromatic C6 to C10 carboxylic acids” (Cosphatec GmbH, priority 2019, dated 2026)
Converted amounts (≈) assume the structure as drawn. Where two headings read alike, the source gives them in different places.

What was measured:
Hygroscopicity = type: physicochemical
Solubility = type: physicochemical; details: for solubility: 20° C.
Escherichia coli = details: cited from earlier work
Staphylococcus aureus = details: cited from earlier work
Pseudomonas aeruginosa = details: cited from earlier work
Candida albicans = details: cited from earlier work
Aspergillus brasiliensis = details: cited from earlier work
[1] = 20° C., Echa Registration Dossier; cited from earlier work

SMILES	hygroscopicity (in words) (Hygroscopicity)	solubility (Solubility; organic solvent or mixture, ethanol, read-out: solubility in ethanol) [µg/mL]	water solubility (in words) (Solubility; water)	solubility (Solubility; water, read-out: solubility in water) [µg/mL]	MIC (Escherichia coli) [%]	MIC (Staphylococcus aureus) [%]	MIC (Pseudomonas aeruginosa) [%]	MIC (Candida albicans) [%]	MIC (Aspergillus brasiliensis) [%]	solubility in water [1] [µg/mL]
CC(=O)CCC(=O)[O-].[Na+] [sodium levulinate]	highly hygroscopic									
COc1ccc(C(=O)O)cc1 [p-methoxybenzoic acid]		50000 (≈ 329000 µM)	low water solubility	300 (≈ 1970 µM)	0.16	0.08	0.16	0.04	0.0025	200 (≈ 1310 µM)
CC(=O)CCC(=O)O [levulinic acid, 4-oxovaleric acid]			good water solubility		0.20	0.35	0.15	0.60		
COc1ccc(C(=O)[O-])cc1.[Na+] [p-methoxybenzoate salt, sodium p-methoxybenzoate]	non-hygroscopic									
